# Data as given in US10208033B2, “β-carboline, dihydro-β-carboline and tetrahydro-β-carboline alkaloid derivatives and preparation methods same and use in aspects of preventing and treating plant viruses, fungicides and insecticides” (NANKAI UNIVERSITY, priority 2013, dated 2019).
# Read-outs that look alike come from different tables or passages of the source.
# Experiments:
# armyworms = assay type: in vivo; settings: concentration 600 mg/kg
# Rhizoctonia solani = experiment: Fungicidal (bactericidal) activity in vitro, PDA colony diameter; assay type: cell-based; settings: 50 mg/kg
# mosquito larvae = experiment: whole plant or invertebrate
# Summary of the method: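 Compound dissolved in acetone (or other solvent) to a 1000 ppm stock and diluted in water to 5 ppm. Ten Culex pipiens pallens larvae at the start of the fourth instar, laboratory-reared, added per beaker; solvent-only aqueous control.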
# [1] = test system: Colletotrichum orbiculare; experiment: Fungicidal (bactericidal) activity in vitro, PDA colony diameter; assay type: cell-based; settings: 50 mg/kg
# Sclerotinia scleotiorum = experiment: as above; assay type: cell-based; settings: 50 mg/kg
# cotton bollworms = experiment: whole plant or invertebrate; settings: for Cotton bollworm Mortality (%): concentration 600 mg/kg
# Description: Experimental method of cotton bollworms: feed and drug mixing method: measure 3 mL of prepared solution and add it to about 27 g of newly prepared feed, thereby obtaining needed concentration through dilution by 10 times.
# [2] = test system: tobacco mosaic virus (TMV); experiment: Anti-TMV in vitro effect (half-leaf soaking); assay type: cell-based, tobacco mosaic virus (host Nicotiana tabacum L.cv.Xanthi NN)
# Cercospora arachidicola = experiment: Fungicidal (bactericidal) activity in vitro, PDA colony diameter; assay type: cell-based; settings: 50 mg/kg
# Fusarium fujikuroi = experiment: as above; assay type: cell-based
# Botrytis cinerea = experiment: as above; assay type: cell-based; settings: 50 mg/kg
# Bipolaria maydis = experiment: organism not typed; assay type: cell-based; settings: for Bactericidal activity (%) Bipolaria maydis: 50 mg/kg
# [3] = test system: tobacco mosaic virus (TMV); experiment: Anti-TMV in vivo inactivation; parameters: species or system tobacco mosaic virus (host Nicotiana tabacum L.cv.Xanthi NN)
# [4] = test system: tobacco mosaic virus (TMV); experiment: Anti-TMV in vivo protective effect; parameters: species or system tobacco mosaic virus (host Nicotiana tabacum L.cv.Xanthi NN)
# corn borers [5] = settings: concentration 600 mg/kg
# Macrophoma kawatsukai = experiment: Fungicidal (bactericidal) activity in vitro, PDA colony diameter; assay type: cell-based; settings: 50 mg/kg
# [6] = test system: armyworms, cotton bollworms and corn borers; experiment: Insecticidal activity, overall statements on Table 3; assay type: in vivo; settings: Table 3, 600 mg/kg
# Rhizoctonia cereali = experiment: Fungicidal (bactericidal) activity in vitro, PDA colony diameter; assay type: cell-based; settings: 50 mg/kg
# potato late blight = experiment: microbe, parasite or virus in culture; assay type: cell-based
# [7] = test system: tobacco mosaic virus (TMV); experiment: Anti-TMV in vivo therapeutic effect; parameters: species or system tobacco mosaic virus (host Nicotiana tabacum L.cv.Xanthi NN)
# Alternaria solani = experiment: Fungicidal (bactericidal) activity in vitro, PDA colony diameter; assay type: cell-based; settings: 50 mg/kg
# cucumber fusarium wilt = experiment: as above; assay type: cell-based; settings: 50 mg/kg
# Fusarium graminearumt = experiment: microbe, parasite or virus in culture; assay type: cell-based; settings: for Bactericidal activity (%) Fusarium graminearumt: 50 mg/kg
# Phytophthora capsici = experiment: Fungicidal (bactericidal) activity in vitro, PDA colony diameter; assay type: cell-based; settings: 50 mg/kg
# corn borers [8] = experiment: whole plant or invertebrate; settings: read-out: Corn borer Mortality (%)
# [9] = Culex pipiens, 24 h, read-out: Mosquito larvae Mortality (%)
smiles,measurement,setting,value
"C[C@@H]1N[C@H](C(=O)NCC2CCCO2)Cc2c1[nH]c1ccccc21 (stereo partly drawn) [Ib-20, (1S, 3S)—N-((tetrahydrofuran-2)-methyl)-1-methyl-2,3,4,9-tetrahydro-pyridino [3,4-b] indol-3-formamide]",Armyworm Mortality (%),armyworms,65%
same,Bactericidal activity (%) Rhizoctonia solani,Rhizoctonia solani,13.2%
same,Mosquito larvae Mortality (%),"mosquito larvae; concentration 5 mg/kg, 24 h",40%
same,Mosquito larvae Mortality (%),"mosquito larvae; concentration 10 mg/kg, 24 h",100%
same,Bactericidal activity (%) Colletotrichum orbiculare,[1],18.5%
same,Bactericidal activity (%) Sclerotinia scleotiorum,Sclerotinia scleotiorum,0.0%
same,Cotton bollworm Mortality (%),cotton bollworms,30%
same,Relative inhibition rate (%) In vitro activity,[2]; treatment dose 100 μg/mL,0%
same,Relative inhibition rate (%) In vitro activity,[2]; treatment dose 500 μg/mL,37.5%
same,Bactericidal activity (%) Cercospora arachidicola,Cercospora arachidicola,23.5%
same,Bactericidal activity (%) Fusarium fujikuroi,Fusarium fujikuroi; 50 mg/kg,21.4%
same,Bactericidal activity (%) Botrytis cinerea,Botrytis cinerea,36.4%
same,Bactericidal activity (%) Bipolaria maydis,Bipolaria maydis,16.0%
same,Relative inhibition rate (%) In vivo inactivation,[3]; treatment dose 100 μg/mL,9.8%
same,Relative inhibition rate (%) In vivo inactivation,[3]; treatment dose 500 μg/mL,39.1%
same,Relative inhibition rate (%) In vivo protection,[4]; treatment dose 100 μg/mL,0%
same,Relative inhibition rate (%) In vivo protection,[4]; treatment dose 500 μg/mL,29.6%
same,Corn borer Mortality (%),corn borers [5],60%
same,Bactericidal activity (%) Macrophoma kawatsukai,Macrophoma kawatsukai,27.8%
same,"activity against armyworms, cotton bollworms and corn borers (in words)",[6],broad-spectrum activity
same,Bactericidal activity (%) Rhizoctonia cereali,Rhizoctonia cereali,47.1%
same,Bactericidal activity (%) potato late blight,potato late blight,20.0%
same,Relative inhibition rate (%) In vivo therapy,[7]; treatment dose 100 μg/mL,0%
same,Relative inhibition rate (%) In vivo therapy,[7]; treatment dose 500 μg/mL,34.2%
same,Bactericidal activity (%) Alternaria solani,Alternaria solani,20.0%
same,Bactericidal activity (%) Cucumber fusarium wilt,cucumber fusarium wilt,15.4%
same,Bactericidal activity (%) Fusarium graminearumt,Fusarium graminearumt,24.1%
same,Bactericidal activity (%) Phytophthora capsici,Phytophthora capsici,18.4%
"C[C@@H]1N[C@H](C(=O)N/N=C/c2ccccc2)Cc2c1[nH]c1ccccc21 [Ic-1, (1S, 3S)—N′-benzylidene-1-methyl-2,3,4,9-tetrahydropyridino [3,4-b] indol-3-formylhydrazine]",Armyworm Mortality (%),armyworms,75%
same,inhibition of growth at 50 mg/kg,"Rhizoctonia solani; Rhizoctonia solani, 96 h",48.6%
same,mortality at 5 mg/kg,mosquito larvae; [9],80%
same,mortality at 10 mg/kg,mosquito larvae; [9],100%
same,activity against culex pipiens larvae (in words),mosquito larvae; at 5 mg/kg,still show high activity
same,inhibition of growth at 50 mg/kg,"[1]; Colletotrichum orbiculare, 96 h",52%
same,inhibition of growth at 50 mg/kg,"Sclerotinia scleotiorum; Sclerotinia, 96 h",26.9%
same,mortality at 600 mg/kg,"cotton bollworms; Helicoverpa armigera, in Gossypium hirsutum, read-out: Cotton bollworm Mortality (%)",55%
same,inhibition at 100 µg/mL,"[2]; Tobacco mosaic virus, treatment dose 100 μg/mL, read-out: Relative inhibition rate (%) In vitro activity",28.4%
same,inhibition at 500 µg/mL,"[2]; Tobacco mosaic virus, treatment dose 500 μg/mL, read-out: Relative inhibition rate (%) In vitro activity",55.8%
same,inhibition of growth at 50 mg/kg,"Cercospora arachidicola; Mycosphaerella arachidis, 96 h",72.7%
same,inhibition of growth at 50 mg/kg,"Fusarium fujikuroi; Fusarium fujikuroi, 96 h, 50 mg/kg",58.8%
same,inhibition of growth at 50 mg/kg,"Botrytis cinerea; Botrytis cinerea, 96 h",88.9%
same,inhibition at 50 mg/kg,Bipolaria maydis; read-out: Bactericidal activity (%) Bipolaria maydis,60%
same,inhibition at 100 µg/mL,"[3]; Tobacco mosaic virus, treatment dose 100 μg/mL, read-out: Relative inhibition rate (%) In vivo inactivation",19.6%
same,inhibition at 500 µg/mL,"[3]; Tobacco mosaic virus, treatment dose 500 μg/mL, read-out: Relative inhibition rate (%) In vivo inactivation",56.3%
same,inhibition at 100 µg/mL,"[4]; Tobacco mosaic virus, treatment dose 100 μg/mL, read-out: Relative inhibition rate (%) In vivo protection",21.8%
same,inhibition at 500 µg/mL,"[4]; Tobacco mosaic virus, treatment dose 500 μg/mL, read-out: Relative inhibition rate (%) In vivo protection",53.2%
same,inhibition at 50 mg/kg,Macrophoma kawatsukai,36.4%
same,"activity against armyworms, cotton bollworms and corn borers (in words)",[6],broad-spectrum activity
same,inhibition of growth at 50 mg/kg,"Rhizoctonia cereali; Rhizoctonia, 96 h",86.5%
same,inhibition of growth at 50 mg/kg,"potato late blight; Phytophthora infestans, 96 h, read-out: Bactericidal activity (%) potato late blight",30.4%
same,inhibition at 100 µg/mL,"[7]; Tobacco mosaic virus, treatment dose 100 μg/mL, read-out: Relative inhibition rate (%) In vivo therapy",16%
same,inhibition at 500 µg/mL,"[7]; Tobacco mosaic virus, treatment dose 500 μg/mL, read-out: Relative inhibition rate (%) In vivo therapy",51.5%
same,inhibition of growth at 50 mg/kg,"Alternaria solani; Alternaria solani, 96 h",57.1%
same,mortality at 600 mg/kg,corn borers [8],60%
same,inhibition of growth at 50 mg/kg,"cucumber fusarium wilt; Fusarium, 96 h",36.4%
same,inhibition of growth at 50 mg/kg,"Fusarium graminearumt; Fusarium, 96 h, read-out: Bactericidal activity (%) Fusarium graminearumt",53.8%
same,inhibition of growth at 50 mg/kg,"Phytophthora capsici; Phytophthora capsici, 96 h",69.7%
"COc1ccc(C=NNC(=O)[C@@H]2Cc3c([nH]c4ccccc34)[C@H](C)N2)cc1OC [Ic-11, (1S, 3S)—N′-(3,4-dimethoxybenzylidene)-1-methyl-2,3,4,9-tetrahydropyridino [3,4-b] indol-3-formylhydrazine]",Armyworm Mortality (%),armyworms,65%
same,Bactericidal activity (%) Rhizoctonia solani,Rhizoctonia solani,44.4%
same,Mosquito larvae Mortality (%),"mosquito larvae; concentration 5 mg/kg, 24 h",40%
same,Mosquito larvae Mortality (%),"mosquito larvae; concentration 10 mg/kg, 24 h",100%
same,Bactericidal activity (%) Colletotrichum orbiculare,[1],72.0%
same,Bactericidal activity (%) Sclerotinia scleotiorum,Sclerotinia scleotiorum,21.2%
same,Cotton bollworm Mortality (%),cotton bollworms,40%
same,Relative inhibition rate (%) In vitro activity,[2]; treatment dose 100 μg/mL,7.8%
same,Relative inhibition rate (%) In vitro activity,[2]; treatment dose 500 μg/mL,37.2%
same,Bactericidal activity (%) Cercospora arachidicola,Cercospora arachidicola,45.5%
same,Bactericidal activity (%) Fusarium fujikuroi,Fusarium fujikuroi,47.1%
same,Bactericidal activity (%) Botrytis cinerea,Botrytis cinerea,66.7%
same,Bactericidal activity (%) Bipolaria maydis,Bipolaria maydis,52.0%
same,Relative inhibition rate (%) In vivo inactivation,[3]; treatment dose 100 μg/mL,20.3%
same,Relative inhibition rate (%) In vivo inactivation,[3]; treatment dose 500 μg/mL,47.1%
same,Relative inhibition rate (%) In vivo protection,[4]; treatment dose 100 μg/mL,11%
same,Relative inhibition rate (%) In vivo protection,[4]; treatment dose 500 μg/mL,42.3%
same,Corn borer Mortality (%),corn borers [5],55%
same,Bactericidal activity (%) Macrophoma kawatsukai,Macrophoma kawatsukai,66.7%
same,"activity against armyworms, cotton bollworms and corn borers (in words)",[6],broad-spectrum activity
same,Bactericidal activity (%) Rhizoctonia cereali,Rhizoctonia cereali,89.2%
same,Bactericidal activity (%) potato late blight,potato late blight,30.4%
same,Relative inhibition rate (%) In vivo therapy,[7]; treatment dose 100 μg/mL,16.2%
same,Relative inhibition rate (%) In vivo therapy,[7]; treatment dose 500 μg/mL,40.5%
same,Bactericidal activity (%) Alternaria solani,Alternaria solani,52.4%
same,Bactericidal activity (%) Cucumber fusarium wilt,cucumber fusarium wilt,22.7%
same,Bactericidal activity (%) Fusarium graminearumt,Fusarium graminearumt,30.8%
same,Bactericidal activity (%) Phytophthora capsici,Phytophthora capsici,84.8%
